Read-outs that look alike come from different tables or passages of the source.
What was measured:
human CYP2C19 [1] = target: T1, human CYP2C19 (Homo sapiens, UniProt P33261); conditions: for CYP2C19 Efficacy (in parenthesis): human
CYP3A4 = CYP3A4 (Homo sapiens, UniProt P08684)
human CYP1A2 [2] = target: T2, human CYP1A2 (Homo sapiens, UniProt P05177); assay: biochemical
T2 sequence (P05177 1-516): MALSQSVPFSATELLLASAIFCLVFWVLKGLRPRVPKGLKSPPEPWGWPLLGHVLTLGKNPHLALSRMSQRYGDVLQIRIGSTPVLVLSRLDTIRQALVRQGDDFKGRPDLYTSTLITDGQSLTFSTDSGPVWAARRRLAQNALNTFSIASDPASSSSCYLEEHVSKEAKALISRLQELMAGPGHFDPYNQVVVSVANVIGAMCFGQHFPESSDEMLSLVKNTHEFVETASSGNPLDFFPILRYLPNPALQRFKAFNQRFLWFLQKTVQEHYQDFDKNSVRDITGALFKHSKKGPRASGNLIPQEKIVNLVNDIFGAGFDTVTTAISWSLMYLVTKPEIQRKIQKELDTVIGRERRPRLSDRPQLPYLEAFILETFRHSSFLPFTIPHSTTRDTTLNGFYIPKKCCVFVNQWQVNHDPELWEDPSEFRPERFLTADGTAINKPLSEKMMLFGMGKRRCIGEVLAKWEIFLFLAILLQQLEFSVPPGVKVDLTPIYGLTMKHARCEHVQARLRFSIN

human CYP2C9 [3] = target: T3, human CYP2C9 (Homo sapiens, UniProt P11712); assay: biochemical
T3 sequence (P11712 whole entry): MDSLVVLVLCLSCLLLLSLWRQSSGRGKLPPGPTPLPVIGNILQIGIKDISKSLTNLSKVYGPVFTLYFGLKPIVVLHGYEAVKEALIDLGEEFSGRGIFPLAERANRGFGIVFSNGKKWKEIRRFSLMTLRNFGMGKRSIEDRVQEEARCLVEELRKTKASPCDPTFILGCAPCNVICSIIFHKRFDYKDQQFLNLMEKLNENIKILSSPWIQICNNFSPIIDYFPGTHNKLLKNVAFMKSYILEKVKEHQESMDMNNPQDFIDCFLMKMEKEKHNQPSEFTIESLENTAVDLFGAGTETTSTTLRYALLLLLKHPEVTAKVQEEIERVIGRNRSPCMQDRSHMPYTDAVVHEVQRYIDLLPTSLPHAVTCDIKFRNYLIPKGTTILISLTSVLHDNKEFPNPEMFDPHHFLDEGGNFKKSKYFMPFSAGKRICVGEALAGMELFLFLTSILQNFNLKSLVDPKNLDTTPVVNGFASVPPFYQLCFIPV

human CYP2D6 [4] = target: T4, human CYP2D6 (Homo sapiens, UniProt P10635); assay: biochemical
T4 sequence (P10635 whole entry): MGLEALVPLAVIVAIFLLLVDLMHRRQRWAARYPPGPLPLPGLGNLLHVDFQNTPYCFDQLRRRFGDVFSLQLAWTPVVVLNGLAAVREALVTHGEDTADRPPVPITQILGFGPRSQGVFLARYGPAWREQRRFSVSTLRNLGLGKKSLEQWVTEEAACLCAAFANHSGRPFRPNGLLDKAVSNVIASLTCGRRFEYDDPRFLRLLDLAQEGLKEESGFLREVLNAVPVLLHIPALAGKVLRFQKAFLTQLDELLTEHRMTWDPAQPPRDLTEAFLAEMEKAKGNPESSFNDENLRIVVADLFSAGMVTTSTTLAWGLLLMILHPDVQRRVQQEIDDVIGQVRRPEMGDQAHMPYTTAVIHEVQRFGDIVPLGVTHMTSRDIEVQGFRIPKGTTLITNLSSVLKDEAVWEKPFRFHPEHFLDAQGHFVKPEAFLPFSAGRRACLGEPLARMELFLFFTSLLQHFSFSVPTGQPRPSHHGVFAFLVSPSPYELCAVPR

human CYP1A2 [5] = target: T2, human CYP1A2; conditions: for CYP1A2 Efficacy (in parenthesis): human
human CYP2C19 [6] = target: T1, human CYP2C19; assay: biochemical
human CYP2C9 [7] = target: T3, human CYP2C9; conditions: human
human CYP2D6 [8] = target: T4, human CYP2D6; conditions: human
[9] = CYP1A2 IC50 (half-maximal inhibitory concentration)
[10] = CYP2C9 IC50 (half-maximal inhibitory concentration)
[11] = CYP2C19 IC50 (half-maximal inhibitory concentration)
[12] = CYP2D6 IC50 (half-maximal inhibitory concentration)

T1 sequence (P33261 whole entry): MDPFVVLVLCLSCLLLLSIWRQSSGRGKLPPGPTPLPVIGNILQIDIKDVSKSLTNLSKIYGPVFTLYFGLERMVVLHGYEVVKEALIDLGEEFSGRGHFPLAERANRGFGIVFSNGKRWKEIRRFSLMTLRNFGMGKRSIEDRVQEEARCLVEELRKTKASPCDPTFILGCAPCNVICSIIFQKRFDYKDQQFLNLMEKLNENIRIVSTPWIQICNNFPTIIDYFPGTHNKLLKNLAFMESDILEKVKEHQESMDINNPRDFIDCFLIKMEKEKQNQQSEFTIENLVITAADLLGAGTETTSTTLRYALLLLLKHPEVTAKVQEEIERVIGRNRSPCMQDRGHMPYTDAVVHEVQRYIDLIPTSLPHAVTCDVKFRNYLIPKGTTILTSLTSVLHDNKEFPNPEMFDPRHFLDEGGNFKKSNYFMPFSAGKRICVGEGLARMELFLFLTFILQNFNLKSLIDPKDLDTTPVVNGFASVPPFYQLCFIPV
CYP3A4, sequence (P08684 whole entry): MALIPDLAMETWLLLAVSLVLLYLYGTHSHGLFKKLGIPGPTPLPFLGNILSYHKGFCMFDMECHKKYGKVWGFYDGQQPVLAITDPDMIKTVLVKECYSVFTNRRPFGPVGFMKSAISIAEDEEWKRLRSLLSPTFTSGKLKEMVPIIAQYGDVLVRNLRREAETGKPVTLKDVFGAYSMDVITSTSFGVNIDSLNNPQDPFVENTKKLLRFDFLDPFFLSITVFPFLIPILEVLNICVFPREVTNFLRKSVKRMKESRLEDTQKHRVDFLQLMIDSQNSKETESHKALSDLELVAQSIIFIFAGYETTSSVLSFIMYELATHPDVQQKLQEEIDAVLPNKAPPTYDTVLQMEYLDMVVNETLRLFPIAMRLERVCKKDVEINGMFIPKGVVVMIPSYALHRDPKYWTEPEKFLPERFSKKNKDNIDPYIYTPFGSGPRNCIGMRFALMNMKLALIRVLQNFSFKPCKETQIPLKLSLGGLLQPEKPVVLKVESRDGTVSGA

Row | SMILES | CYP1A2 Efficacy (in parenthesis) (human CYP1A2 [5]) | CYP2C9 Efficacy (in parenthesis) (human CYP2C9 [7]) | CYP2C19 Efficacy (in parenthesis) (human CYP2C19 [1]) | CYP2D6 Efficacy (in parenthesis) (human CYP2D6 [8]) | IC50 (human CYP1A2 [2]; [9]) | IC50 (human CYP2C9 [3]; [10]) | IC50 (human CYP2C19 [6]; [11]) | IC50 (human CYP2D6 [4]; [12]) | IC50 (human CYP2C9 [3]) | IC50 (human CYP2D6 [4]) | other results
1 | Oc1ccc(-c2ccc(O)cc2)cc1 [4,4'-Biphenyldiol] | – | – | – | – | – | – | – | – | – | – | CYP2C19 AC50 (half-maximal activity concentration) (human CYP2C19 [1]): Inconclusive inhibitor; CYP3A4 AC50 (half-maximal activity concentration) (CYP3A4): Inconclusive inhibitor; AC50 (human CYP1A2 [2]): 32.1 µM; AC50 (human CYP2C9 [3]): 9.08 µM; AC50 (human CYP2D6 [4]): 61.3 µM
2 | Oc1ccc(Sc2ccc(O)cc2)cc1 [4,4'-Thiodiphenol] | – | – | – | – | – | – | – | – | – | – | CYP1A2 AC50 (half-maximal activity concentration) (human CYP1A2 [5]): Inconclusive inhibitor; CYP3A4 AC50 (half-maximal activity concentration) (CYP3A4): Inconclusive inhibitor; AC50 (human CYP2C9 [3]): 3.66 µM; AC50 (human CYP2C19 [6]): 36 µM; AC50 (human CYP2D6 [4]): 30.9 µM
3 | c1ccc(-c2ccc(C(c3ccccc3)n3ccnc3)cc2)cc1 (stereo not drawn) [Bifonazole] | 5.3 ± 0.35 (-105 ± 4) % | 0.25 ± 0.05 (-104 ± 3) % | 0.47 ± 0.14 (-136 ± 18) % | 1.82 ± 0.33 (-107 ± 6) % | 5.3 µM | 0.25 µM | 0.47 µM | 1.82 µM | – | – | –
4 | Clc1ccc(CCC(Cn2ccnc2)Sc2c(Cl)cccc2Cl)cc1 (stereo not drawn) [Butoconazole nitrate] | 16.12 ± 1.09 (-93 ± 6) % | 0.1 ± 0.02 (-98 ± 4) % | 0.04 ± 0.0 (-132 ± 17) % | 2.37 ± 0.15 (-100 ± 5) % | 16.1 µM | 0.1 µM | 0.04 µM | 2.37 µM | – | – | –
5 | CCOP(=S)(OCC)SCSc1ccc(Cl)cc1 [Carbophenothion] | 8.84 ± 2.46 (-90 ± 2) % | 1.13 ± 0.13 (-94 ± 12) % | 0.47 ± 0.18 (-138 ± 5) % | 13.25 ± 2.38 (-84 ± 7) % | 8.84 µM | – | 0.47 µM | – | 1.13 µM | 13.2 µM | –
6 | NS(=O)(=O)c1ccc(Cl)c(S(N)(=O)=O)c1 [Clofenamide] | – | – | – | – | – | – | – | – | – | – | CYP1A2 AC50 (half-maximal activity concentration) (human CYP1A2 [5]): Inactive; CYP2C19 AC50 (half-maximal activity concentration) (human CYP2C19 [1]): Inactive; CYP3A4 AC50 (half-maximal activity concentration) (CYP3A4): Inactive; AC50 (human CYP2C9 [3]; CYP2C9 AC50 (half-maximal activity concentration)): 19.8 µM; AC50 (human CYP2D6 [4]; CYP2D6 AC50 (half-maximal activity concentration)): 30.6 µM
7 | CCOP(=S)(OCC)Oc1ccc2c(C)c(Cl)c(=O)oc2c1 [Coumaphos] | 3.5 ± 0.6 (-95 ± 2) % | 0.28 ± 0.02 (-103 ± 5) % | 0.32 ± 0.04 (-144 ± 23) % | 5.34 ± 0.96 (-101 ± 7) % | 3.5 µM | – | 0.32 µM | – | 0.28 µM | 5.34 µM | –
8 | O=C1c2ccccc2C(=O)C1C(=O)C(c1ccccc1)c1ccccc1 [Diphacinone] | 28.28 ± 11.08 (-93 ± 7) % | 0.53 ± 0.74 (-101 ± 4) % | 34.81 ± 11.45 (-80 ± 23) % | 32.29 ± 4.12 (-49 ± 4) % | 28.3 µM | 0.53 µM | 34.8 µM | 32.3 µM | – | – | IC50 (human CYP2C9 [3]; IC50 CYP2C9 assay): 0.5 µM
9 | CN(C)C(=O)Nc1ccc(Cl)c(Cl)c1 [Diuron] | 0.86 ± 0.12 (-103 ± 3) % | 69.41 ± 26.11 (-48 ± 19) % | 39.45 ± 16.91 (-98 ± 5) % | 42.09 ± 18.16 (-73 ± 17) % | 0.86 µM | 69.4 µM | 39.5 µM | 42.1 µM | – | – | –
10 | Clc1ccc(C(Cn2ccnc2)OCc2ccc(Sc3ccccc3)cc2)c(Cl)c1 (stereo not drawn) [Fenticonazole nitrate] | 16.12 ± 1.09 (-89 ± 8) % | 2.99 ± 0.41 (-103 ± 6) % | 2.65 ± 0.17 (-137 ± 20) % | 0.37 ± 0.02 (-82 ± 4) % | – | – | – | – | 2.99 ± 0.41 µM | 0.37 ± 0.02 µM | IC50 (human CYP1A2 [2]): 16.1 ± 1.09 µM; IC50 (human CYP2C19 [6]): 2.65 ± 0.17 µM
11 | CC(C)=CCOc1c2occc2cc2ccc(=O)oc12 [Imperatorin] | 0.42 ± 0.17 (-97 ± 12) % | 0.62 ± 0.07 (-96 ± 6) % | 4.36 ± 0.0 (-126 ± 1) % | 4.72 ± 0.31 (-110 ± 6) % | 0.42 µM | 0.62 µM | 4.36 µM | 4.72 µM | – | – | –
12 | CC(C)[N+](C)(CCC(C(N)=O)(c1ccccc1)c1ccccc1)C(C)C [Isopropamide] | 30.41 ± 7.39 (-70 ± 30) % | 33.31 ± 14 (-72 ± 28) % | 35.59 ± 11.39 (-61 ± 21) % | 0.7 ± 0.32 (-99 ± 8) % | 30.4 µM | 33.3 µM | 35.6 µM | 0.7 µM | – | – | –
13 | O=C1N(c2ccccc2)c2ccccc2C1(Cc1ccncc1)Cc1ccncc1 [Linopirdine] | 24.14 ± 9.56 (-50 ± 8) % | 3.04 ± 0.74 (-95 ± 5) % | 1.71 ± 1.07 (-136 ± 7) % | 20.69 ± 9.02 (-61 ± 27) % | – | – | – | – | 3.04 ± 0.74 µM | 20.7 ± 9.02 µM | IC50 (human CYP1A2 [2]): 24.1 ± 9.56 µM; IC50 (human CYP2C19 [6]): 1.71 ± 1.07 µM
14 | CCCN(CCc1cccs1)[C@H]1CCc2c(O)cccc2C1 [Rotigotine] | 31.04 ± 3.57 (-46 ± 10) % | 16.12 ± 1.09 (-56 ± 2) % | 2.55 ± 0.17 (-115 ± 10) % | 0.4 ± 0.09 (-102 ± 0) % | – | – | – | – | 16.1 ± 1.09 µM | 0.4 ± 0.09 µM | AC50 (human CYP1A2 [2]): 31 ± 3.57 µM; IC50 (human CYP1A2 [2]): 31 ± 3.57 µM; AC50 (human CYP2C9 [3]): 16.1 ± 1.09 µM; AC50 (human CYP2C19 [6]): 2.55 ± 0.17 µM; IC50 (human CYP2C19 [6]): 2.55 ± 0.17 µM; AC50 (human CYP2D6 [4]): 0.4 ± 0.09 µM
15 | Clc1ccc(C(Cn2ccnc2)OCc2ccsc2Cl)c(Cl)c1 (stereo not drawn) [Tioconazole] | 4.61 ± 0.27 (-94 ± 11) % | 0.21 ± 0.09 (-104 ± 10) % | 0.25 ± 0.09 (-140 ± 3) % | 2.79 ± 0.58 (-109 ± 6) % | 4.61 µM | 0.21 µM | 0.25 µM | 2.79 µM | – | – | –
16 | Clc1ccc(Nc2nnc(Cc3ccncc3)c3ccccc23)cc1 [Vatalanib] | 2.03 ± 0.52 (-97 ± 14) % | 0.79 ± 0.66 (-96 ± 3) % | 1.1 ± 0.95 (-157 ± 44) % | 5.98 ± 9.87 (-107 ± 3) % | – | – | – | – | 0.79 µM | 5.98 µM | IC50 (human CYP1A2 [2]; CYP1A2 IC50 (half-maximal inhibitory concentration), mean ± standard deviation from three experiments, qHTS): 2.03 ± 0.52 µM; IC50 (human CYP2C19 [6]; CYP2C19 IC50 (half-maximal inhibitory concentration), mean ± standard deviation from three experiments, qHTS): 1.1 ± 0.95 µM
17 | N#C/C(=C1/SC[C@@H](c2ccc(Cl)cc2Cl)S1)n1ccnc1 [luliconazole, reference compound] | 0.33 ± 0.09 (-91 ± 7) % | 0.52 ± 0.12 (-109 ± 5) % | 0.46 ± 0.08 (-137 ± 13) % | 0.22 ± 0.03 (-105 ± 2) % | 0.33 µM | 0.52 µM | 0.46 µM | 0.22 µM | – | – | –

Reference: article PMC12155096 (International Journal of Molecular Sciences, 2025)
